The values below come from US20030134779A1, “Method and composition for treatment and/or prevention of antibiotic-resistant microorganism infections” (priority 2002, published 2003).

Experiment [1] relates to β-lactamase (BlaZ) gene expression in S. aureus strain SHY97-4320. In words: BlaZ gene expression, real-time quantitative RT-PCR, and total RNA. The format is cell-based, Staphylococcus aureus. The method, then: Fresh MHB containing or not 8 μg/ml of penicillin G and/or 1 mg/ml of bovine LF (2×2 factorial design) was adjusted to an optical density at 540 nm of 0.04 with an overnight culture of S. aureus and then incubated at 37° C. with agitation (150 rpm). After 4 and 22-h of incubation, aliquots were removed to determine bacterial growth by viable count (colony forming unit per ml, cfu/ml), measuring the culture turbidity (OD540nm) with a spectrophotometer Philips PU and to measure β-lactamase activity in bacterial cells. Following culture under the same condition, bacterial cells were collected for RNA extraction.
Total bacterial RNA was prepared using the RNeasy minikit (Qiagen, Mississauga, ON, Canada). Washed bacteria were first treated with 50 μg/ml of lysostaphin (GramCracker, Ambion, Austin, Tex.) for 10 min at 37° C. and RNA was purified according to the manufacturer's protocol. Contaminating DNA was removed from total RNA by using 1 U of Rnase-free Dnase I (Gibco Life Technologies, Grand Island, N.Y.) in a 10 μl reaction mixture containing approximately 50 ng of total RNA per μl and 20mM Tris-HCl (pH 8.4), 2 mM MgCl2 and 50 mM KCl. The reaction mixture was incubated for 15 min at room temperature, and the Dnase I was inactivated by adding 1 μl of 25 mM EDTA to the mixture and incubating for 10 min at 65° C. before assessing quantity and purity. Amount of cellular RNA was then determined by measuring the OD260 nm and OD280 nm.
Real-Time fluorescence-based 5′ nuclease PCR which is a widely accepted method for measuring gene expression levels was used to quantify β-lactamase BlaZ RNA by RT-PCR on ABI Prism™ 7700 (TaqMan® ) sequence detector (PE Applied Biosystem, Foster City, Calif.). The forward primer, reverse.primer, and TaqMan probe for Real-Time RT-PCR amplification were designed with the PrimerExpress software (PE Applied Biosystem) to specifically amplify the. S. aureus BLAZ gene. Briefly, RNA (50 ng) was added to a 50 μl reaction mixture containing 25 μl of 2×RT-PCR One-Step Universal Master Mix, 1.25 μl of 40×MultiScribe and Rnase Inhibitor Mix, 4.5 μl of the forward primer (10 μM, 5′-[…]-3′, SEQ ID NO:3), 4.5 μl of the reverse primer (10 μM, 5′-[…]-3′, SEQ ID NO:4), and 1.25 μl of TaqMan probe (10 μM, 6FAM-[…]-TAMRA, SEQ ID NO:5). Reverse transcription with the recombinant Moloney Murine Leukemia Virus (M-MuLV) Reverse Transcriptase (0.25 U/μl) was conducted at 48° C. for 30 min. […] The cycle threshold value (CT), indicative of the quantity of target gene at which the fluorescence exceeds a pre-set threshold, was determined and compared to the CT of a standard curve containing known amounts of mRNA (1.1×10^2 to 1.1×10^9) from the BLAZ gene of S. aureus obtained by in vitro transcription. […]

A further experiment has as its system S. aureus 3804^f. In words: MIC of penicillin G alone or with bovine LF, macrodilution. The format is cell-based, Staphylococcus aureus. The conditions noted are these: strain β-lactamase +C; for MIC: Staphylococcus aureus. The source says: Staphylococcus aureus strains ATCC 25923 and 6538 and Escherichia coli ATCC 25922 were obtained from the American Type Culture Collection. Eight bovine mastitis clinical isolates of S. aureus (SHY97-3906, -3923, -4085 -4242, -4320 and -4343, RFT-1 and RFT-5) and one isolate of E. coli SHY97-3923-2 and one isolate of Kiebsiella pneumoniae SHY99-723-1 were kindly provided by the Laboratoire Provincial de Pathologie Animale of St-Hyacinthe and of Rock-Forest (Quebec, Canada), respectively. Nine β-lactam antibiotics resistant S. aureus strains (PC-1, NCTC 9789, 2076, 22260, ST79/741, 3804, RN9, FAR8, and FAR10) were obtained from Vanderbilt University School of Medicine (Nashville, Tenn., USA). All the culture media were from Difco Laboratories (Detroit, Mich.). Bacteria from frozen stock at −80° C. were streaked onto tryptic soy agar plates suplemented with 5% of defibrinated sheep blood (Quelab, Montreal, QC, Canada) or Brain Heart infusion agar plates. Plates were then incubated for 16 to 24 h at 37° C. For most experiments, the strains were subcultured onto Mueller Hinton agar plates (MHA) or broth (MHB) for an additional 16-20 h. Aqueous solutions of the tested products were added by filtration through a sterile filter assembly (pore size 0.2 μm, Fisher, Ottawa, Ontario).
The MICs were determined by both macrodilution (1 ml/tube) and microdilution (100 μl/well) in sterile 96 well microtiter plates (International Nunc, Napierville, Ill.) techniques in three separate experiments according to the National Committee for Clinical Laboratory Standards (1992 and 1999) in three separate experiments. Serial 2-fold dilutions in MHB of LF, LFC, antibiotic or combination of LF or LFC with antibiotic were inoculated with an overnight culture at a final inoculum of 10^6 cfu/ml in MHB. Effect of LF combination with antibiotic on MICs were determined by adding 0.5 mg or 1 mg/ml of LF to each antibiotic dilution. The MIC was defined as the lowest concentration of drug (highest dilution) that caused a complete inhibition of bacterial growth after an incubation of 18 h. Effect of LF or LFC combination with antibiotic on MIC was also determined by checkerboard method using 96 well microtiter plates. Each antibiotic dilution (50 μl) was serially added to the wells in vertical rows starting from the top (lower dilution) to the bottom. Lactoferrin or LFC (50 μl) were added to 50 μl of each antibiotic dilution and serially diluted starting at the left (lower dilution) to the right. After inoculation, the final concentration of antibiotic from top to bottom were 32 to 8, 2 to 0.5, 0.5 to 0.125 μg/ml for penicillin, cefazolin and neomycin, respectively. From left to right, the concentration of LF or LFC were 25 to 0.0244 mg/ml or 256 to 0.5 μg/ml respectively in a final volume of 100 μl/well. The microplate's were incubated at 37° C. for 24 h. Bacterial growth was measured optically at 540 nm using Spectra Max 250 Microplate Spectrophotometer System of Molecular Device (Fisher Scientific, Ottawa, Canada). Tubes were incubated at 37° C. for 18 h and bacterial growth was measured by visual examination and optically at 540 nm using a spectrophotometer (Philips PU 8800; Pye Unican Ltd, Cambridge, UK). The fractional inhibitory concentration (FIC) was calculated as described by Eliopoulos and Moellering (1991).

Read-outs that look alike come from different tables or passages of the source.

As for `CC1(C)S[C@@H]2[C@H](NC(=O)Cc3ccccc3)C(=O)N2[C@H]1C(=O)O` [penicillin G, Penicillin G], in experiment [1] (LF 1 mg/ml and/or penicillin G), the “BlaZ total: total number of copies of BlaZ gene mRNA/ml of culture” value is on record as 174.9 × 10^5 copies/ml of culture and the “BlaZ: number of copies of BlaZ gene mRNA/50 ng of mRNA” value was 22.9 × 10^4 copies/50 ng of mRNA. Also, in experiment [1] (adjusted for an OD540nm of 1.0, LF 1 mg/ml and/or penicillin G), the RNA was 3.22 ± 0.49 :g/ml. Also, the “increase in the number of copies of the BlaZ mRNA per ml of culture” value in experiment [1] (penicillin G added to the growth medium, P<0.01) was 28 fold. The “MICs of penicillin G” value in the experiment with S. aureus 3804^f (+1 mg/ml LF) was 64 µg/mL. For the same compound, the MIC with S. aureus 3804^f (read-out: MICs of penicillin G, Alone) came to 128 mg/L. The MIC with S. aureus 3804^f (+0.5 mg/ml LF, read-out: MICs of penicillin G) worked out at 64 mg/L.
